“And” between values parts separate entries of the source, which are not always exact repeats. Identical values can stand only once. Toxic doses and inconclusive results are not listed. Cut-off read from the data, not from the text of the source: active = T/C of 150% or more; inactive = T/C below 125%.
Tested on: L1210 leukemia ip in BDF1 mice, survival T/C
Assay: NCI In Vivo Anticancer Drug Screen. Data for tumor model L1210 Leukemia (intraperitoneal) in B6D2F1 (BDF1) mice
Conditions: endpoint: mean survival time, higher = longer survival
Outline: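 Antitumor effect is assessed in tumor-bearing animals. Survival in the compound arm is compared with a vehicle-dosed control arm and expressed as their quotient.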

[1] = dose: 100.0 mg/kg/injection, schedule: Q01DX009 (ip), vehicle: saline with Tween-80
[2] = dose: 100.0 mg/kg/injection, schedule: Q04DX003 (ip), vehicle: saline with Tween-80
[3] = dose: 200.0 mg/kg/injection, schedule: Q04DX003 (ip), vehicle: saline with Tween-80
[4] = dose: 400.0 mg/kg/injection, schedule: Q04DX003 (ip), vehicle: saline with Tween-80
[5] = dose: 100.0 mg/kg/injection, schedule: Q01DX009 (ip), vehicle: Klucel (hydroxypropylcellulose) (HPC)
[6] = dose: 200.0 mg/kg/injection, schedule: Q01DX009 (ip), vehicle: Klucel (hydroxypropylcellulose) (HPC)
[7] = dose: 400.0 mg/kg/injection, schedule: Q01DX009 (ip), vehicle: Klucel (hydroxypropylcellulose) (HPC)
[8] = dose: 100.0 mg/kg/injection, schedule: Q01DX001 (ip), vehicle: saline
[9] = dose: 200.0 mg/kg/injection, schedule: Q01DX001 (ip), vehicle: saline
[10] = dose: 400.0 mg/kg/injection, schedule: Q01DX001 (ip), vehicle: saline
[11] = dose: 25.0 mg/kg/injection, schedule: Q01DX009 (ip), vehicle: saline with Tween-80
[12] = dose: 50.0 mg/kg/injection, schedule: Q01DX009 (ip), vehicle: saline with Tween-80
[13] = dose: 25.0 mg/kg/injection, schedule: Q01DX009 (ip), vehicle: Klucel (hydroxypropylcellulose) (HPC)
[14] = dose: 50.0 mg/kg/injection, schedule: Q01DX009 (ip), vehicle: Klucel (hydroxypropylcellulose) (HPC)
[15] = dose: 50.0 mg/kg/injection, schedule: Q04DX003 (ip), vehicle: Klucel (hydroxypropylcellulose) (HPC)
[16] = dose: 50.0 mg/kg/injection, schedule: Q01DX009 (ip), vehicle: saline
[17] = dose: 100.0 mg/kg/injection, schedule: Q01DX009 (ip), vehicle: saline
[18] = dose: 100.0 mg/kg/injection, schedule: Q04DX003 (ip), vehicle: Klucel (hydroxypropylcellulose) (HPC)
[19] = dose: 200.0 mg/kg/injection, schedule: Q04DX003 (ip), vehicle: Klucel (hydroxypropylcellulose) (HPC)

Measured: T/C

CCC(=O)OCC(C)([N+](=O)[O-])[N+](=O)[O-]
inactive: [1] 106 % of control | [2] 97 % of control | dose: 200.0 mg/kg/injection, schedule: Q01DX009 (ip), vehicle: saline with Tween-80 97 % of control | [3] 97 % of control | dose: 400.0 mg/kg/injection, schedule: Q01DX009 (ip), vehicle: saline with Tween-80 101 % of control | [4] 109 % of control

Cc1cc(C)cc(-n2nnc3ccccc3c2=O)c1
inactive: [5] 102 % of control | dose: 100.0 mg/kg/injection, schedule: Q04DX003 (ip), vehicle: saline 91 % of control | [6] 98 % of control | dose: 200.0 mg/kg/injection, schedule: Q04DX003 (ip), vehicle: saline 93 % of control | [7] 101 % of control | dose: 400.0 mg/kg/injection, schedule: Q04DX003 (ip), vehicle: saline 88 % of control

O=C1C(O)=C(O)C(=O)C(O)=C1O
inactive: [8] 103 % of control | [9] 100 % of control | [10] 105 % of control

c1ccc(-c2nn(-c3ccccc3)[n+](-c3cccc4ccccc34)n2)cc1
inactive: dose: 1.0 mg/kg/injection, schedule: Q01DX015 (ip), vehicle: carboxymethylcellulose (CMC) 100 % of control | dose: 2.0 mg/kg/injection, schedule: Q01DX015 (ip), vehicle: carboxymethylcellulose (CMC) 102 % of control | dose: 4.0 mg/kg/injection, schedule: Q01DX015 (ip), vehicle: carboxymethylcellulose (CMC) 102 % of control | dose: 8.0 mg/kg/injection, schedule: Q01DX015 (ip), vehicle: carboxymethylcellulose (CMC) 105 % of control

CN(C)Cc1c[nH]c2c1S/C(=C/c1ccccc1)C2=O
inactive: dose: 100.0 mg/kg/injection, schedule: Q01DX001 (ip), vehicle: Klucel (hydroxypropylcellulose) (HPC) 105 % of control | dose: 200.0 mg/kg/injection, schedule: Q01DX001 (ip), vehicle: Klucel (hydroxypropylcellulose) (HPC) 96 % of control | dose: 400.0 mg/kg/injection, schedule: Q01DX001 (ip), vehicle: Klucel (hydroxypropylcellulose) (HPC) 100 % of control

CCCCN(CCCC)CN(CCCC)CCCC
inactive: [11] 97 % of control | [12] 100 % of control | [1] 100 % of control | dose: 100.0 mg/kg/injection, schedule: Q04DX002 (ip), vehicle: saline 95 % of control | dose: 200.0 mg/kg/injection, schedule: Q04DX002 (ip), vehicle: saline 95 % of control

CN1C(=S)c2ccccc2S1(=O)=O
inactive: [2] 106 % of control | [3] 94 % of control | [4] 92 % of control

CSc1ccc(C(=O)c2ccc(SC)cc2)cc1
inactive: [5] 98 % of control | [6] 98 % of control | [7] 95 % of control

COc1cc2c(cc1OC)C(C=C(c1ccccc1)c1ccccc1)N(C)CC2 (centres undefined)
inactive: dose: 12.5 mg/kg/injection, schedule: Q01DX009 (ip), vehicle: Klucel (hydroxypropylcellulose) (HPC) 94 % of control | dose: 12.5 mg/kg/injection, schedule: Q04DX003 (ip), vehicle: Klucel (hydroxypropylcellulose) (HPC) 95 % of control | [13] 103 % of control | dose: 25.0 mg/kg/injection, schedule: Q04DX003 (ip), vehicle: Klucel (hydroxypropylcellulose) (HPC) 101 % of control | [14] 96 % of control | [15] 96 % of control

CNC(=O)Nc1ccc(Cl)cn1
inactive: [11] 100 % of control | [12] 97 % of control | [1] 98 % of control and 103 % of control

CC(=O)Oc1cccc([N+](=O)[O-])c1
inactive: dose: 100.0 mg/kg/injection, schedule: Q04DX002 (ip), vehicle: Klucel (hydroxypropylcellulose) (HPC) 107 % of control | dose: 200.0 mg/kg/injection, schedule: Q04DX002 (ip), vehicle: Klucel (hydroxypropylcellulose) (HPC) 100 % of control | dose: 400.0 mg/kg/injection, schedule: Q04DX002 (ip), vehicle: Klucel (hydroxypropylcellulose) (HPC) 92 % of control

O=c1[nH]cnc2sc3c(c12)CCCC3
inactive: dose: 100.0 mg/kg/injection, schedule: Q01DX009 (ip), vehicle: saline sonified 94 % of control | dose: 100.0 mg/kg/injection, schedule: Q04DX003 (ip), vehicle: saline sonified 92 % of control | dose: 200.0 mg/kg/injection, schedule: Q01DX009 (ip), vehicle: saline sonified 116 % of control | dose: 200.0 mg/kg/injection, schedule: Q04DX003 (ip), vehicle: saline sonified 98 % of control | dose: 400.0 mg/kg/injection, schedule: Q01DX009 (ip), vehicle: saline sonified 100 % of control | dose: 400.0 mg/kg/injection, schedule: Q04DX003 (ip), vehicle: saline sonified 101 % of control

c1ccc(COc2ccc(OCc3ccccc3)cc2)cc1
inactive: [16] 93 % of control | [17] 98 % of control | [18] 87 % of control | dose: 200.0 mg/kg/injection, schedule: Q01DX009 (ip), vehicle: saline 93 % of control | [19] 105 % of control | dose: 400.0 mg/kg/injection, schedule: Q04DX003 (ip), vehicle: Klucel (hydroxypropylcellulose) (HPC) 94 % of control

O=[N+]([O-])c1[nH]c(Cl)nc1Cl
inactive: dose: 25.0 mg/kg/injection, schedule: Q01DX001 (ip), vehicle: saline with Tween-80 97 % of control | dose: 50.0 mg/kg/injection, schedule: Q01DX001 (ip), vehicle: saline with Tween-80 103 % of control

CNC(=O)c1c2c(nc3ccccc13)CCCC2
inactive: [8] 102 % of control | [9] 102 % of control | [10] 111 % of control

C=CS(=O)(=O)c1ccccc1Cl
inactive: [18] 104 % of control | [19] 98 % of control

C=CCC1(CCC)C(=O)NC(=O)NC1=O
inactive: dose: 25.0 mg/kg/injection, schedule: Q01DX009 (ip), vehicle: saline 100 % of control | [16] 112 % of control | [17] 100 % of control | [18] 92 % of control

C=CC1(C)CCC2C(=CCC3C2(C)CC(O)C(O)C3(C)COC2OC(CO)C(O)C(O)C2O)C1 (centres undefined)
inactive: dose: 75.0 mg/kg/injection, schedule: Q01DX001 (ip), vehicle: saline 96 % of control

COc1ccccc1/C=N/N=C(N)N
inactive: dose: 15.5 mg/kg/injection, schedule: Q01DX Z (ip), vehicle: other 97 % of control | dose: 31.0 mg/kg/injection, schedule: Q01DX Z (ip), vehicle: other 96 % of control

COc1ccccc1CCCOC(=O)c1ccc([N+](=O)[O-])cc1
inactive: dose: 100.0 mg/kg/injection, schedule: Q01DX001 (ip), vehicle: saline with Tween-80 100 % of control | dose: 200.0 mg/kg/injection, schedule: Q01DX001 (ip), vehicle: saline with Tween-80 95 % of control | dose: 400.0 mg/kg/injection, schedule: Q01DX001 (ip), vehicle: saline with Tween-80 89 % of control

CC(=O)Nc1cc(F)c2c(c1)Cc1cc(F)ccc1-2
inactive: dose: 50.0 mg/kg/injection, schedule: Q01DX001 (ip), vehicle: carboxymethylcellulose (CMC) 102 % of control | dose: 100.0 mg/kg/injection, schedule: Q01DX001 (ip), vehicle: carboxymethylcellulose (CMC) 98 % of control | dose: 200.0 mg/kg/injection, schedule: Q01DX001 (ip), vehicle: carboxymethylcellulose (CMC) 93 % of control | dose: 400.0 mg/kg/injection, schedule: Q01DX001 (ip), vehicle: carboxymethylcellulose (CMC) 93 % of control

CC/C(=C/c1ccc(OC)c(OC)c1)[N+](=O)[O-]
inactive: [13] 98 % of control | [14] 101 % of control | [15] 96 % of control | [5] 91 % of control | [18] 104 % of control

O=C(O)/C=C\C(=O)Nc1ccccc1C(=O)O
inactive: [2] 98 % of control | [3] 97 % of control | [4] 111 % of control

O=C(Nc1ccccc1C(F)(F)F)OCCOc1ccccc1
inactive: dose: 100.0 mg/kg/injection, schedule: Q01DX009 (ip), vehicle: gum acacia 92 % of control | dose: 200.0 mg/kg/injection, schedule: Q01DX009 (ip), vehicle: gum acacia 88 % of control | dose: 400.0 mg/kg/injection, schedule: Q01DX009 (ip), vehicle: gum acacia 93 % of control

Source: PubChem BioAssay AID248 (DTP/NCI, 2004)
